Results as given in US20150307938A1, “METHOD TO IDENTIFY A NOVEL CLASS OF IMMUNOLOGIC ADJUVANTS” (Lancell, L.L.C., priority 2011, published 2015).
“And” between values parts separate entries of the source, which are not always exact repeats. Equal values may be shown once.

Tested on: skin
Assay: Affymetrix microarray of skin, DBP-4 hr and analogs vs. untreated; gene selection by log-2 fold change, Wilcoxon, Kendall tau (Tables 8, 9)
Assay type: in vivo, mouse
Details: mouse, in vivo

Structure (SMILES): CCCCOC(=O)c1ccccc1C(=O)OCCCC [DBP, dibutylphthalate]
- AY026312 NM_133359_at ≧2-Fold change: No
- Abcc3 (NM_029600_at) ≧2-Fold change: Yes
- Acot5 (NM_145444_at) ≧2-Fold change: Yes
- Actn2 NM_033268_at ≧2-Fold change: No
- Adamts4 (NM_172845_at) ≧2-Fold change: Yes
- Akap12 (NM_031185_at) ≧2-Fold change: Yes
- Akr1c14 NM_134072_at ≧2-Fold change: No
- Aldh7a1 NM_001127338_at ≧2-Fold change: No
- Angptl4 (NM_020581_at) ≧2-Fold change: Yes
- Aox4 NM_023631_at ≧2-Fold change: No
- Arc (NM_018790_at) ≧2-Fold change: Yes
- Arid5a (NM_145996_at) ≧2-Fold change: Yes
- Arid5a (NR_033310_at) ≧2-Fold change: Yes
- Asb5 NM_029569_at ≧2-Fold change: No
- Atp2a2 NM_001110140_at ≧2-Fold change: No
- Atp13a3 NM_001128094_at ≧2-Fold change: No
- Atp13a3 NM_001128096_at ≧2-Fold change: No
- Bcar3 (NM_013867_at) ≧2-Fold change: Yes
- Bcl3 (NM_033601_at) ≧2-Fold change: Yes
- Bcr NM_001081412_at ≧2-Fold change: No
- Bhlhe40 (NM_011498_at) ≧2-Fold change: Yes
- Calcb (NM_054084_at) ≧2-Fold change: Yes
- Camk2g NM_001039138_at ≧2-Fold change: No
- Camk2g NM_001039139_at ≧2-Fold change: No
- Ccl1 (NM_011329_at) ≧2-Fold change: Yes
- Ccl2 (NM_011333_at) ≧2-Fold change: Yes
- Ccl3 (NM_011337_at) ≧2-Fold change: Yes
- Ccl7 (NM_013654_at) ≧2-Fold change: Yes
- Ccl8 NM_021443_at ≧2-Fold change: No
- Ccl9 (NM_011338_at) ≧2-Fold change: Yes
- Ccl12 (NM_011331_at) ≧2-Fold change: Yes
- Ccl17 (NM_011332_at) ≧2-Fold change: Yes
- Ccl20 (NM_016960_at) ≧2-Fold change: Yes
- Ccl24 NM_019577_at ≧2-Fold change: No
- Cd86 (NM_019388_at) ≧2-Fold change: Yes
- Cd207 (NM_144943_at) ≧2-Fold change: Yes
- Cd209d NM_130904_at ≧2-Fold change: No
- Ckmt2 NM_198415_at ≧2-Fold change: No
- Cldn8 NM_018778_at ≧2-Fold change: No
- Clec4e (NM_019948_at) ≧2-Fold change: Yes
- Clec4n NM_020001_at ≧2-Fold change: No
- Clec7a (NM_020008_at) ≧2-Fold change: Yes
- Clec4d (NM_010819_at) ≧2-Fold change: Yes
- Clic4 (NM_013885_at) ≧2-Fold change: Yes
- Cmya5 NM_023821_at ≧2-Fold change: No
- Comp NM_016685_at ≧2-Fold change: No
- Corin NM_016869_at ≧2-Fold change: No
- Crem (NM_013498_at) ≧2-Fold change: Yes
- Crispld1 NM_031402_at ≧2-Fold change: No
- Cxcl10 NM_021274_at ≧2-Fold change: No
- Cxcl16 (NM_023158_at) ≧2-Fold change: Yes
- Cxcr6 NM_030712_at ≧2-Fold change: No
- Cyr61 (NM_010516_at) ≧2-Fold change: Yes
- Cyth1 NM_001112699_at ≧2-Fold change: No
- Cyth1 NM_001112700_at ≧2-Fold change: No
- Cytip (NM_139200_at) ≧2-Fold change: Yes
- DBP LogFold-Change Versus-Untreated: 1600029D21Rik: 1.52
- DBP LogFold-Change Versus-Untreated: 1810055G02Rik: 0.89
- DBP LogFold-Change Versus-Untreated: 5730408K05Rik: 0.91
- DBP LogFold-Change Versus-Untreated: 1810011010Rik: 1.53
- DBP LogFold-Change Versus-Untreated: Abcc3: 1.09
- DBP LogFold-Change Versus-Untreated: Adam8: 1.94
- DBP LogFold-Change Versus-Untreated: Adamts4: 1.41
- DBP LogFold-Change Versus-Untreated: Angptl4: 2.61
- DBP LogFold-Change Versus-Untreated: Aqp3: 0.89
- DBP LogFold-Change Versus-Untreated: Arc: 1.90
- DBP LogFold-Change Versus-Untreated: Arid5a: 1.49
- DBP LogFold-Change Versus-Untreated: Bcar3: 1.08
- DBP LogFold-Change Versus-Untreated: Bcl3: 2.56
- DBP LogFold-Change Versus-Untreated: Bhlhe40: 1.26
- DBP LogFold-Change Versus-Untreated: Birc3: 1.02
- DBP LogFold-Change Versus-Untreated: Btg2: 1.56
- DBP LogFold-Change Versus-Untreated: Ccl2: 3.23
- DBP LogFold-Change Versus-Untreated: Ccl7: 3.11
- DBP LogFold-Change Versus-Untreated: Ccl12: 3.10
- DBP LogFold-Change Versus-Untreated: Ccl20: 5.93
- DBP LogFold-Change Versus-Untreated: Ccrn4l: 1.75
- DBP LogFold-Change Versus-Untreated: Cd44: 1.31
- DBP LogFold-Change Versus-Untreated: Cd86: 1.73
- DBP LogFold-Change Versus-Untreated: Cd207: 1.42
- DBP LogFold-Change Versus-Untreated: Cebpd: 1.58
- DBP LogFold-Change Versus-Untreated: Ch25h: 1.91
- DBP LogFold-Change Versus-Untreated: Cirh1a: 0.79
- DBP LogFold-Change Versus-Untreated: Cish: 1.12
- DBP LogFold-Change Versus-Untreated: Clec7a: 2.09
- DBP LogFold-Change Versus-Untreated: Clic4: 1.12
- DBP LogFold-Change Versus-Untreated: Coro2a: 0.88
- DBP LogFold-Change Versus-Untreated: Crem: 1.29 and 1.23
- DBP LogFold-Change Versus-Untreated: Csf2rb: 1.11
